Reference: the NIST ThermoML archive (doi:10.1021/acs.jced.8b00537)
Numbers after ± are expanded uncertainties.

Experiment: xn = mol fraction of the nth substance listed
Settings: 333.15 K; 100 kPa; Liquid; Capillary tube (Ostwald / Ubbelohde) method; x2 = 0

SMILES | viscosity [mPa·s]
CCCO [propan-1-ol] + CC[S+](CC)CC.O=S(=O)([N-]S(=O)(=O)C(F)(F)F)C(F)(F)F | 0.892 ± 0.072
CCCO [propan-1-ol] + O=S(=O)([N-]S(=O)(=O)C(F)(F)F)C(F)(F)F.On1cc[n+](O)c1 | 0.892 ± 0.072

Same assay, conditions: 333.15 K; 100 kPa; Liquid; Frequency=3 MHz; Single path-length method; x2 = 0

SMILES | speed of sound [m/s]
CCCO [propan-1-ol] + C=CCn1cc[n+](C)c1.O=S(=O)([N-]S(=O)(=O)C(F)(F)F)C(F)(F)F | 1088.3 ± 6
CCCO [propan-1-ol] + CC[S+](CC)CC.O=S(=O)([N-]S(=O)(=O)C(F)(F)F)C(F)(F)F | 1088.3 ± 6
CCCO [propan-1-ol] + O=S(=O)([N-]S(=O)(=O)C(F)(F)F)C(F)(F)F.On1cc[n+](O)c1 | 1088.3 ± 6

Same assay, conditions: 333.15 K; 100 kPa; Liquid; Vibrating tube method; x2 = 0

SMILES | mass density [kg/m3]
CCCO [propan-1-ol] + C=CCn1cc[n+](C)c1.O=S(=O)([N-]S(=O)(=O)C(F)(F)F)C(F)(F)F | 770 ± 2
CCCO [propan-1-ol] + CC[S+](CC)CC.O=S(=O)([N-]S(=O)(=O)C(F)(F)F)C(F)(F)F | 770 ± 2
CCCO [propan-1-ol] + O=S(=O)([N-]S(=O)(=O)C(F)(F)F)C(F)(F)F.On1cc[n+](O)c1 | 770 ± 2

Same assay, conditions: 338.15 K; 100 kPa; Liquid; Capillary tube (Ostwald / Ubbelohde) method; x2 = 0

SMILES | viscosity [mPa·s]
CCCO [propan-1-ol] + C=CCn1cc[n+](C)c1.O=S(=O)([N-]S(=O)(=O)C(F)(F)F)C(F)(F)F | 0.81 ± 0.065
CCCO [propan-1-ol] + CC[S+](CC)CC.O=S(=O)([N-]S(=O)(=O)C(F)(F)F)C(F)(F)F | 0.81 ± 0.065
CCCO [propan-1-ol] + O=S(=O)([N-]S(=O)(=O)C(F)(F)F)C(F)(F)F.On1cc[n+](O)c1 | 0.81 ± 0.065

Same assay, conditions: 338.15 K; 100 kPa; Liquid; Frequency=3 MHz; Single path-length method; x2 = 0

SMILES | speed of sound [m/s]
CCCO [propan-1-ol] + C=CCn1cc[n+](C)c1.O=S(=O)([N-]S(=O)(=O)C(F)(F)F)C(F)(F)F | 1071.5 ± 6
CCCO [propan-1-ol] + CC[S+](CC)CC.O=S(=O)([N-]S(=O)(=O)C(F)(F)F)C(F)(F)F | 1071.5 ± 6
CCCO [propan-1-ol] + O=S(=O)([N-]S(=O)(=O)C(F)(F)F)C(F)(F)F.On1cc[n+](O)c1 | 1071.5 ± 6

Same assay, conditions: 338.15 K; 100 kPa; Liquid; Vibrating tube method; x2 = 0

SMILES | mass density [kg/m3]
CCCO [propan-1-ol] + C=CCn1cc[n+](C)c1.O=S(=O)([N-]S(=O)(=O)C(F)(F)F)C(F)(F)F | 766 ± 2
CCCO [propan-1-ol] + CC[S+](CC)CC.O=S(=O)([N-]S(=O)(=O)C(F)(F)F)C(F)(F)F | 766 ± 2
CCCO [propan-1-ol] + O=S(=O)([N-]S(=O)(=O)C(F)(F)F)C(F)(F)F.On1cc[n+](O)c1 | 766 ± 2

Same assay, conditions: 343.15 K; 100 kPa; Liquid; Capillary tube (Ostwald / Ubbelohde) method; x2 = 0

SMILES | viscosity [mPa·s]
CCCO [propan-1-ol] + C=CCn1cc[n+](C)c1.O=S(=O)([N-]S(=O)(=O)C(F)(F)F)C(F)(F)F | 0.737 ± 0.059
CCCO [propan-1-ol] + CC[S+](CC)CC.O=S(=O)([N-]S(=O)(=O)C(F)(F)F)C(F)(F)F | 0.737 ± 0.059
CCCO [propan-1-ol] + O=S(=O)([N-]S(=O)(=O)C(F)(F)F)C(F)(F)F.On1cc[n+](O)c1 | 0.737 ± 0.059

Same assay, conditions: 343.15 K; 100 kPa; Liquid; Frequency=3 MHz; Single path-length method; x2 = 0

SMILES | speed of sound [m/s]
CCCO [propan-1-ol] + C=CCn1cc[n+](C)c1.O=S(=O)([N-]S(=O)(=O)C(F)(F)F)C(F)(F)F | 1054.5 ± 6
CCCO [propan-1-ol] + CC[S+](CC)CC.O=S(=O)([N-]S(=O)(=O)C(F)(F)F)C(F)(F)F | 1054.5 ± 6
CCCO [propan-1-ol] + O=S(=O)([N-]S(=O)(=O)C(F)(F)F)C(F)(F)F.On1cc[n+](O)c1 | 1054.5 ± 6

Same assay, conditions: 343.15 K; 100 kPa; Liquid; Vibrating tube method; x2 = 0

SMILES | mass density [kg/m3]
CCCO [propan-1-ol] + C=CCn1cc[n+](C)c1.O=S(=O)([N-]S(=O)(=O)C(F)(F)F)C(F)(F)F | 762 ± 2
CCCO [propan-1-ol] + CC[S+](CC)CC.O=S(=O)([N-]S(=O)(=O)C(F)(F)F)C(F)(F)F | 762 ± 2
CCCO [propan-1-ol] + O=S(=O)([N-]S(=O)(=O)C(F)(F)F)C(F)(F)F.On1cc[n+](O)c1 | 762 ± 2

Experiment: not given
Settings: 278.15 K; 100 kPa; Liquid; Frequency=3 MHz; Single path-length method

SMILES | speed of sound [m/s]
C=CCn1cc[n+](C)c1.O=S(=O)([N-]S(=O)(=O)C(F)(F)F)C(F)(F)F | 1286.6 ± 6.2
CC[S+](CC)CC.O=S(=O)([N-]S(=O)(=O)C(F)(F)F)C(F)(F)F [triethylsulfonium bis((trifluoromethyl)sulfonyl)imide] | 1284.8 ± 6.1
CCCO [propan-1-ol] | 1276 ± 6
CCCC[N+]1(C)CCCC1.O=S(=O)([N-]S(=O)(=O)C(F)(F)F)C(F)(F)F | 1316.3 ± 6.3

Same assay, conditions: 278.15 K; 100 kPa; Liquid; Vibrating tube method

SMILES | mass density [kg/m3]
C=CCn1cc[n+](C)c1.O=S(=O)([N-]S(=O)(=O)C(F)(F)F)C(F)(F)F | 1520.13 ± 3.2
CC[S+](CC)CC.O=S(=O)([N-]S(=O)(=O)C(F)(F)F)C(F)(F)F [triethylsulfonium bis((trifluoromethyl)sulfonyl)imide] | 1479.52 ± 3
CCCO [propan-1-ol] | 815.52 ± 1.6
CCCC[N+]1(C)CCCC1.O=S(=O)([N-]S(=O)(=O)C(F)(F)F)C(F)(F)F | 1412.33 ± 3.3

Same assay, conditions: 283.15 K; 100 kPa; Liquid; Frequency=3 MHz; Single path-length method

SMILES | speed of sound [m/s]
C=CCn1cc[n+](C)c1.O=S(=O)([N-]S(=O)(=O)C(F)(F)F)C(F)(F)F | 1274.9 ± 6.2
CC[S+](CC)CC.O=S(=O)([N-]S(=O)(=O)C(F)(F)F)C(F)(F)F [triethylsulfonium bis((trifluoromethyl)sulfonyl)imide] | 1274.1 ± 6.1
CCCO [propan-1-ol] | 1258.7 ± 6
CCCC[N+]1(C)CCCC1.O=S(=O)([N-]S(=O)(=O)C(F)(F)F)C(F)(F)F | 1304.4 ± 6.3

Same assay, conditions: 283.15 K; 100 kPa; Liquid; Vibrating tube method

SMILES | mass density [kg/m3]
C=CCn1cc[n+](C)c1.O=S(=O)([N-]S(=O)(=O)C(F)(F)F)C(F)(F)F | 1514.97 ± 3.2
CC[S+](CC)CC.O=S(=O)([N-]S(=O)(=O)C(F)(F)F)C(F)(F)F [triethylsulfonium bis((trifluoromethyl)sulfonyl)imide] | 1474.62 ± 3
CCCO [propan-1-ol] | 811.6 ± 1.6
CCCC[N+]1(C)CCCC1.O=S(=O)([N-]S(=O)(=O)C(F)(F)F)C(F)(F)F | 1407.79 ± 3.2

Same assay, conditions: 288.15 K; 100 kPa; Liquid; Frequency=3 MHz; Single path-length method

SMILES | speed of sound [m/s]
C=CCn1cc[n+](C)c1.O=S(=O)([N-]S(=O)(=O)C(F)(F)F)C(F)(F)F | 1263.1 ± 6.2
CC[S+](CC)CC.O=S(=O)([N-]S(=O)(=O)C(F)(F)F)C(F)(F)F [triethylsulfonium bis((trifluoromethyl)sulfonyl)imide] | 1263.3 ± 6.1
CCCO [propan-1-ol] | 1241.1 ± 6
CCCC[N+]1(C)CCCC1.O=S(=O)([N-]S(=O)(=O)C(F)(F)F)C(F)(F)F | 1292.5 ± 6.3

Same assay, conditions: 288.15 K; 100 kPa; Liquid; Vibrating tube method

SMILES | mass density [kg/m3]
C=CCn1cc[n+](C)c1.O=S(=O)([N-]S(=O)(=O)C(F)(F)F)C(F)(F)F | 1509.81 ± 3.2
CC[S+](CC)CC.O=S(=O)([N-]S(=O)(=O)C(F)(F)F)C(F)(F)F [triethylsulfonium bis((trifluoromethyl)sulfonyl)imide] | 1469.71 ± 3
CCCO [propan-1-ol] | 807.63 ± 1.6
CCCC[N+]1(C)CCCC1.O=S(=O)([N-]S(=O)(=O)C(F)(F)F)C(F)(F)F | 1403.28 ± 3.2

Same assay, conditions: 293.15 K; 100 kPa; Liquid; Capillary tube (Ostwald / Ubbelohde) method

SMILES | viscosity [mPa·s]
O=S(=O)([N-]S(=O)(=O)C(F)(F)F)C(F)(F)F.On1cc[n+](O)c1 [1,3-dihydroxyimidazolium bis(trifluoromethylsulfonyl)imide] | 238.6 ± 20
C=CCn1cc[n+](C)c1.O=S(=O)([N-]S(=O)(=O)C(F)(F)F)C(F)(F)F | 41.83 ± 3.4
CC[S+](CC)CC.O=S(=O)([N-]S(=O)(=O)C(F)(F)F)C(F)(F)F [triethylsulfonium bis((trifluoromethyl)sulfonyl)imide] | 39.64 ± 3.2
CCCO [propan-1-ol] | 2.14 ± 0.17
CCCC[N+]1(C)CCCC1.O=S(=O)([N-]S(=O)(=O)C(F)(F)F)C(F)(F)F | 97.14 ± 7.9

Same assay, conditions: 293.15 K; 100 kPa; Liquid; Frequency=3 MHz; Single path-length method

SMILES | speed of sound [m/s]
O=S(=O)([N-]S(=O)(=O)C(F)(F)F)C(F)(F)F.On1cc[n+](O)c1 [1,3-dihydroxyimidazolium bis(trifluoromethylsulfonyl)imide] | 1208.2 ± 6.3
C=CCn1cc[n+](C)c1.O=S(=O)([N-]S(=O)(=O)C(F)(F)F)C(F)(F)F | 1251.6 ± 6.2
CC[S+](CC)CC.O=S(=O)([N-]S(=O)(=O)C(F)(F)F)C(F)(F)F [triethylsulfonium bis((trifluoromethyl)sulfonyl)imide] | 1252.9 ± 6.1
CCCO [propan-1-ol] | 1223.8 ± 6
CCCC[N+]1(C)CCCC1.O=S(=O)([N-]S(=O)(=O)C(F)(F)F)C(F)(F)F | 1280.8 ± 6.3

Same assay, conditions: 293.15 K; 100 kPa; Liquid; Vibrating tube method

SMILES | mass density [kg/m3]
O=S(=O)([N-]S(=O)(=O)C(F)(F)F)C(F)(F)F.On1cc[n+](O)c1 [1,3-dihydroxyimidazolium bis(trifluoromethylsulfonyl)imide] | 1746.4 ± 4.3
C=CCn1cc[n+](C)c1.O=S(=O)([N-]S(=O)(=O)C(F)(F)F)C(F)(F)F | 1504.69 ± 3.2
CC[S+](CC)CC.O=S(=O)([N-]S(=O)(=O)C(F)(F)F)C(F)(F)F [triethylsulfonium bis((trifluoromethyl)sulfonyl)imide] | 1464.83 ± 3
CCCO [propan-1-ol] | 803.65 ± 1.6
CCCC[N+]1(C)CCCC1.O=S(=O)([N-]S(=O)(=O)C(F)(F)F)C(F)(F)F | 1398.78 ± 3.2

Same assay, conditions: 298.15 K; 100 kPa; Liquid; Capillary tube (Ostwald / Ubbelohde) method

SMILES | viscosity [mPa·s]
O=S(=O)([N-]S(=O)(=O)C(F)(F)F)C(F)(F)F.On1cc[n+](O)c1 [1,3-dihydroxyimidazolium bis(trifluoromethylsulfonyl)imide] | 171.83 ± 14
CC[S+](CC)CC.O=S(=O)([N-]S(=O)(=O)C(F)(F)F)C(F)(F)F [triethylsulfonium bis((trifluoromethyl)sulfonyl)imide] | 32.43 ± 2.6
CCCO [propan-1-ol] | 1.897 ± 0.15
CCCC[N+]1(C)CCCC1.O=S(=O)([N-]S(=O)(=O)C(F)(F)F)C(F)(F)F | 76.54 ± 6.2

Same assay, conditions: 298.15 K; 100 kPa; Liquid; Frequency=3 MHz; Single path-length method

SMILES | speed of sound [m/s]
O=S(=O)([N-]S(=O)(=O)C(F)(F)F)C(F)(F)F.On1cc[n+](O)c1 [1,3-dihydroxyimidazolium bis(trifluoromethylsulfonyl)imide] | 1196.6 ± 6.3
C=CCn1cc[n+](C)c1.O=S(=O)([N-]S(=O)(=O)C(F)(F)F)C(F)(F)F | 1240.2 ± 6.2
